Here are results for 41 compounds from patent US20080021026A1, “BENZOTHIOPHENE INHIBITORS OF RHO KINASE” (priority 2006, published 2008).

T1 sequence (O75116 1-552): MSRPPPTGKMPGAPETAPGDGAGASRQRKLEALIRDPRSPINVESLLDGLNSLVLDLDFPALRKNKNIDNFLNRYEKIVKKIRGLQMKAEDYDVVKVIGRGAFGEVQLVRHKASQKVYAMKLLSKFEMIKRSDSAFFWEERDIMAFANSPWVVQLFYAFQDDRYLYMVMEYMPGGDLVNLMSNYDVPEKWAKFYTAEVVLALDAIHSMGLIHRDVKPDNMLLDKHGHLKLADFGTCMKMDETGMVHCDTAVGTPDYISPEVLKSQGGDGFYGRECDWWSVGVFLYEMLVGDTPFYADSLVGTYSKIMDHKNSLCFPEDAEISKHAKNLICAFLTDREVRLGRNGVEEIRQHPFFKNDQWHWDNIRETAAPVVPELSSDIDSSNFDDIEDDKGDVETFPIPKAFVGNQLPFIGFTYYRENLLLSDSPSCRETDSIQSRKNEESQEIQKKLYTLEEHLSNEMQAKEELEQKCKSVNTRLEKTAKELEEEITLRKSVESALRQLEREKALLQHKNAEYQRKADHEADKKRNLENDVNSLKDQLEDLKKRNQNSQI

The assay addresses T1, recombinant N-terminal GST-tagged human Rho kinase 2 (ROCK2, amino acids 1-552) (Homo sapiens, UniProt O75116).
T1 construct: ROCK2, amino acids 1-552; purchased Invitrogen Inc. PV3759
Description: In vitro Rho kinase assay (luciferase-based ATP consumption), ROCK2. In kind it is biochemical. The conditions noted are these: recombinant GST-tagged human ROCK2, luciferase-based ATP consumption; read-out: ROCK2 IC50. Here is the method: In Vitro Rho Kinase Assay
Rho kinase biochemical assays described below depend on firefly luciferase-based, indirect measurement of total ATP consumption by the kinase following incubation with substrate and ATP. 25 μl of Rho kinase assay buffer (20 mM Tris-HCL [pH 7.5], 1 mM MgCl2, 0.4 mM CaCl2, 0.15 mM EGTA, 0.1 mg/ml bovine serum albumin) containing 0.82 μg/ml of recombinant N-terminal GST-tagged human Rho kinase 1 (ROCK1, amino acids 1-535, Invitrogen Inc., cat. #PV-3691) or recombinant N-terminal GST-tagged human Rho kinase 2 (ROCK2, amino acids 1-552, Invitrogen Inc., cat #PV3759), 100 μg/ml S6 peptide substrate (related to amino acids 218-249 of the human 40S ribosomal protein S6, and suitable for ROCK1 or ROCK2, e.g. Upstate/Millipore Inc., cat #12-420), and 3 µM ATP are dispensed to wells of a 384 multi-well opaque plate. The plate is centrifuged for 30 seconds at approximately 200×g. 240 nl of test compound in DMSO is dispensed to each well by passive pin transfer. The lag phase of this in vitro kinase reaction permits addition of compounds soon after the reaction initiates. The reaction is allowed to incubate at 30° C. for 2 hours. The assay plates are sealed and maintained in a humidified environment. After 2 hours, 25 μl of easylite protein kinase assay reagent (Perkin-Elmer, Inc.) is dispensed. After an additional 10 minute incubation at room temperature (about 22° C.), luminescence activity is measured on a Molecular Devices Analyst multi-mode plate reader or other suitable plate reader. Kinase inhibition results in less ATP consumption, and therefore increased luminescence signal. Negative control activity is measured with DMSO lacking any test compound. The positive control is 2-methyl-1-(4-methylisoquinolin-5-ylsulfonyl)perhydro-1,4-diazepine hydrochloride (aka H-1152P, HCl salt). Efficacy is measured as a percentage of positive control activity. […] In some cases, kinase reactions and compound testing are performed in 1536 multi-well plates under similar conditions, with assay volumes appropriately scaled. The designation NT means the cited example was not tested.
Consider `CC(=O)N[C@H]1CCN(C(=O)c2ccc3sc(-c4ccnc(N)n4)c(C)c3c2)C1` [Example 495, CC(═O)N[C@H]1CCN(C1)C(═O)c2ccc3sc(c(C)c3c2)-c4ccnc(N)n4], for which the half-maximal inhibitory concentration (IC50) (as a rule, the concentration that gives 50% inhibition) is above 5 µM.
The value for `Cc1ccc(N2CCN(C(=O)c3ccc4sc(-c5ccnc(N)n5)c(C)c4c3)CC2)c(C)c1` [Example 538, Cc1ccc(N2CCN(CC2)C(═O)c3ccc4sc(c(C)c4c3)-c5ccnc(N)n5)c(C)c1] was above 5 µM; that for `COC(=O)C1CCN(C(=O)c2ccc3sc(-c4ccnc(N)n4)c(C)c3c2)CC1` [Example 504, COC(═O)C1CCN(CC1)C(═O)c2ccc3sc(c(C)c3c2)-c4ccnc(N)n4] was above 5 µM.
Turning to `Cc1c(-c2ccnc(N)n2)sc2ccc(C(=O)N3CCN(c4ccc(F)cc4)CC3)cc12` [Example 526, Cc1c(sc2ccc(cc12)C(═O)N3CCN(CC3)c4ccc(F)cc4)-c5ccnc(N)n5], the IC50 is below 5 µM.
For the compound `Cc1c(-c2ccnc(N)n2)sc2ccc(C(=O)N3CCSC3)cc12` [Example 471, Cc1c(sc2ccc(cc12)C(═O)N3CCSC3)-c4ccnc(N)n4], the 50% inhibitory concentration (IC50) is below 5 µM.
Then `Cc1c(-c2ccnc(N)n2)sc2ccc(C(=O)NCC#N)cc12` [Example 332, Cc1c(sc2ccc(cc12)C(═O)NCC#N)-c3ccnc(N)n3], with below 5 µM.
With `Cc1c(-c2ccnc(N)n2)sc2ccc(C(=O)NCCOc3ccccc3)cc12` [Example 401, Cc1c(sc2ccc(cc12)C(═O)NCCOc3ccccc3)-c4ccnc(N)n4], the IC50 is below 5 µM.
Then `Cc1c(-c2ccnc(N)n2)sc2ccc(C(=O)N3CCN(c4cccc(Cl)c4)CC3)cc12` [Example 544, Cc1c(sc2ccc(cc12)C(═O)N3CCN(CC3)c4cccc(Cl)c4)-c5ccnc(N)n5], with below 5 µM; and `Cc1c(-c2ccnc(N)n2)sc2ccc(C(=O)N3CC(C)CC(C)C3)cc12` (centres unmarked) [Example 481, CC1CC(C)CN(C1)C(═O)c2ccc3sc(c(C)c3c2)-c4ccnc(N)n4], with below 5 µM.
As for `Cc1c(-c2ccnc(N)n2)sc2ccc(C(=O)N3CCSCC3)cc12` [Example 479, Cc1c(sc2ccc(cc12)C(═O)N3CCSCC3)-c4ccnc(N)n4], the IC50 was below 5 µM.
Regarding `COc1ccccc1CNC(=O)c1ccc2sc(-c3ccnc(N)n3)c(C)c2c1` [Example 402, COc1ccccc1CNC(═O)c2ccc3sc(c(C)c3c2)-c4ccnc(N)n4], the IC50 was below 5 µM.
The value for `CCC(CO)NC(=O)c1ccc2sc(-c3ccnc(N)n3)c(C)c2c1` (centres unmarked) [Example 353, CCC(CO)NC(═O)c1ccc2sc(c(C)c2c1)-c3ccnc(N)n3] was below 5 µM; that for `Cc1c(-c2ccnc(N)n2)sc2ccc(C(=O)N3CCN(Cc4ccccc4)CC3)cc12` [Example 521, Cc1c(sc2ccc(cc12)C(═O)N3CCN(CC3)Cc4ccccc4)-c5ccnc(N)n5] was above 5 µM.
The value for `Cc1c(-c2ccnc(N)n2)sc2ccc(C(=O)NCC3CCCCC3)cc12` [Example 369, Cc1c(sc2ccc(cc12)C(═O)NCC3CCCCC3)-c4ccnc(N)n4] was below 5 µM; that for `Cc1c(-c2ccnc(N)n2)sc2ccc(C(=O)N3CCC(C)CC3)cc12` [Example 473, CC1CCN(CC1)C(═O)c2ccc3sc(c(C)c3c2)-c4ccnc(N)n4] was below 5 µM.
Take `COc1ccc(OC)c(CCNC(=O)c2ccc3sc(-c4ccnc(N)n4)c(C)c3c2)c1` [Example 449, COc1ccc(OC)c(CCNC(═O)c2ccc3sc(c(C)c3c2)-c4ccnc(N)n4)c1]: the IC50 is below 5 µM.
As for `Cc1c(-c2ccnc(N)n2)sc2ccc(C(=O)NC(C)Cc3ccncc3)cc12` (centres unmarked) [Example 399, CC(Cc1ccncc1)NC(═O)c2ccc3sc(c(C)c3c2)-c4ccnc(N)n4], the half-inhibitory concentration (IC50) was below 5 µM.
As to `Cc1ccc(CNC(=O)c2ccc3sc(-c4ccnc(N)n4)c(C)c3c2)cc1` [Example 380, Cc1ccc(CNC(═O)c2ccc3sc(c(C)c3c2)-c4ccnc(N)n4)cc1], the IC50 is below 5 µM.
The value for `CCN(C)C(=O)c1ccc2sc(-c3ccnc(N)n3)c(C)c2c1` [Example 460, CCN(C)C(═O)c1ccc2sc(c(C)c2c1)-c3ccnc(N)n3] was below 5 µM.
With `Cc1c(-c2ccnc(N)n2)sc2ccc(C(=O)N(CCO)Cc3ccccc3)cc12` [Example 506, Cc1c(sc2ccc(cc12)C(═O)N(CCO)Cc3ccccc3)-c4ccnc(N)n4], the IC50 was below 5 µM.
Take `Cc1ccc(C)c(N2CCN(C(=O)c3ccc4sc(-c5ccnc(N)n5)c(C)c4c3)CC2)c1` [Example 539, Cc1ccc(C)c(c1)N2CCN(CC2)C(═O)c3ccc4sc(c(C)c4c3)-c5ccnc(N)n5]: the IC50 was above 5 µM.
Then `COc1ccc(C(=O)CNC(=O)c2ccc3sc(-c4ccnc(N)n4)c(C)c3c2)cc1` [Example 455, COc1ccc(cc1)C(═O)CNC(═O)c2ccc3sc(c(C)c3c2)-c4ccnc(N)n4], with below 5 µM; and `Cc1c(-c2ccnc(N)n2)sc2ccc(C(=O)NCCC#N)cc12` [Example 338, Cc1c(sc2ccc(cc12)C(═O)NCCC#N)-c3ccnc(N)n3], with below 5 µM; and `COc1ccc(NC(=O)c2ccc3sc(-c4ccnc(N)n4)c(C)c3c2)cc1OC` [Example 426, COc1ccc(NC(═O)c2ccc3sc(c(C)c3c2)-c4ccnc(N)n4)cc1OC], with below 5 µM.
Consider `Cc1c(-c2ccnc(N)n2)sc2ccc(C(=O)NC3CCCC3)cc12` [Example 346, Cc1c(sc2ccc(cc12)C(═O)NC3CCCC3)-c4ccnc(N)n4], for which the concentration for half-maximal inhibition (IC50) was below 5 µM.
Turning to `CCN(CC)CCNC(=O)c1ccc2sc(-c3ccnc(N)n3)c(C)c2c1` [Example 374, CCN(CC)CCNC(═O)c1ccc2sc(c(C)c2c1)-c3ccnc(N)n3], the half-maximal inhibitory concentration (IC50) was below 5 µM.
`Cc1cccc(CNC(=O)c2ccc3sc(-c4ccnc(N)n4)c(C)c3c2)c1` [Example 375, Cc1cccc(CNC(═O)c2ccc3sc(c(C)c3c2)-c4ccnc(N)n4)c1]: the half-inhibitory concentration (IC50) was below 5 µM.
Then `Cc1c(-c2ccnc(N)n2)sc2ccc(C(=O)NCCc3ccccc3)cc12` [Example 378, Cc1c(sc2ccc(cc12)C(═O)NCCc3ccccc3)-c4ccnc(N)n4], with below 5 µM; and `CCNC(=O)c1ccc2sc(-c3ccnc(N)n3)c(C)c2c1` [Example 330, CCNC(═O)c1ccc2sc(c(C)c2c1)-c3ccnc(N)n3], with below 5 µM; and `Cc1c(-c2ccnc(N)n2)sc2ccc(C(=O)N3CCC(Cc4ccccc4)CC3)cc12` [Example 520, Cc1c(sc2ccc(cc12)C(═O)N3CCC(CC3)Cc4ccccc4)-c5ccnc(N)n5], with above 5 µM.
The value for `Cc1c(-c2ccnc(N)n2)sc2ccc(C(=O)NCCc3ccc(S(N)(=O)=O)cc3)cc12` [Example 454, Cc1c(sc2ccc(cc12)C(═O)NCCc3ccc(cc3)S(N)(═O)═O)-c4ccnc(N)n4] was below 5 µM; that for `Cc1c(-c2ccnc(N)n2)sc2ccc(C(=O)NCc3ccncc3)cc12` [Example 366, Cc1c(sc2ccc(cc12)C(═O)NCc3ccncc3)-c4ccnc(N)n4] was below 5 µM; that for `Cc1c(-c2ccnc(N)n2)sc2ccc(C(=O)N3CCN(c4cccc(C(F)(F)F)c4)CC3)cc12` [Example 566, Cc1c(sc2ccc(cc12)C(═O)N3CCN(CC3)c4cccc(c4)C(F)(F)F)-c5ccnc(N)n5] was above 5 µM.
Then `Cc1c(-c2ccnc(N)n2)sc2ccc(C(=O)N3CCN(c4ccccc4)CC3)cc12` [Example 513, Cc1c(sc2ccc(cc12)C(═O)N3CCN(CC3)c4ccccc4)-c5ccnc(N)n5], with below 5 µM.
For `Cc1c(-c2ccnc(N)n2)sc2ccc(C(=O)NCc3ccc(Cl)cc3)cc12` [Example 410, Cc1c(sc2ccc(cc12)C(═O)NCc3ccc(Cl)cc3)-c4ccnc(N)n4], the concentration for half-maximal inhibition (IC50) was below 5 µM.
Then `CCOC(=O)C1CCN(C(=O)c2ccc3sc(-c4ccnc(N)n4)c(C)c3c2)CC1` [Example 509, CCOC(═O)C1CCN(CC1)C(═O)c2ccc3sc(c(C)c3c2)-c4ccnc(N)n4], with above 5 µM.
The value for `Cc1c(-c2ccnc(N)n2)sc2ccc(C(=O)N(C)CC(O)c3ccc(O)cc3)cc12` (centres unmarked) [Example 518, CN(CC(O)c1ccc(O)cc1)C(═O)c2ccc3sc(c(C)c3c2)-c4ccnc(N)n4] was below 5 µM; that for `Cc1c(-c2ccnc(N)n2)sc2ccc(C(=O)NCc3ccc4c(c3)OCO4)cc12` [Example 420, Cc1c(sc2ccc(cc12)C(═O)NCc3ccc4OCOc4c3)-c5ccnc(N)n5] was below 5 µM.
Take `Cc1c(-c2ccnc(N)n2)sc2ccc(C(=O)NCCCN3CCOCC3)cc12` [Example 415, Cc1c(sc2ccc(cc12)C(═O)NCCCN3CCOCC3)-c4ccnc(N)n4]: the IC50 is below 5 µM.
Turning to `COc1ccc(CCN(C)C(=O)c2ccc3sc(-c4ccnc(N)n4)c(C)c3c2)cc1OC` [Example 543, COc1ccc(CCN(C)C(═O)c2ccc3sc(c(C)c3c2)-c4ccnc(N)n4)cc1OC], the IC50 was above 5 µM.
`Cc1c(-c2ccnc(N)n2)sc2ccc(Nc3cccc(O)c3)cc12` [Example 52, 3-(2-(2-Aminopyrimidin-4-yl)-3-methylbenzo[b]thiophen-5-ylamino)phenol]: the half-inhibitory concentration (IC50) was below 5 µM.
